Laboratory results taken from patent US4582794A, “Method of determining polyamine content of biological fluids” (The University of Arizona Foundation, priority 1982, dated 1986).

Target: T1, guinea pig liver transglutaminase (UniProt P08587)
T1 construct: guinea pig liver transglutaminase; from tissue; host or cells: guinea pig liver
T1 sequence (P08587 2-690 limits assumed): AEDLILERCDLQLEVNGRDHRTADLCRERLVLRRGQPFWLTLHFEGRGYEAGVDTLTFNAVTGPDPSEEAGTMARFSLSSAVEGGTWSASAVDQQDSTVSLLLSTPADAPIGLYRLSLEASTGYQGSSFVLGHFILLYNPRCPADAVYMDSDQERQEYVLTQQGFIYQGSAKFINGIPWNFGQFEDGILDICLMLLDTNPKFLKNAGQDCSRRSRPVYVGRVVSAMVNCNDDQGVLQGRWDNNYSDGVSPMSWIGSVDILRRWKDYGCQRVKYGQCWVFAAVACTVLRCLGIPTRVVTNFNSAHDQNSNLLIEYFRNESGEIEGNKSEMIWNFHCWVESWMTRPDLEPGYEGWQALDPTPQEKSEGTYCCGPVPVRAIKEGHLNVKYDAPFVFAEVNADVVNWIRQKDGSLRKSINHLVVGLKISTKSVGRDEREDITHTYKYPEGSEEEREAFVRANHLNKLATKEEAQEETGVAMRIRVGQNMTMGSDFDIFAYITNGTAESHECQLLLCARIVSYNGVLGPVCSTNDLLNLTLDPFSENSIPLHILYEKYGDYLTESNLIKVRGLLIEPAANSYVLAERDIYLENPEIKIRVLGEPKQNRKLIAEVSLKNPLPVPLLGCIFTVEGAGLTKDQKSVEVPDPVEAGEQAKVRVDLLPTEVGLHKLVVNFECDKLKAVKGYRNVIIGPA
Assay: transglutaminase-competition assay (incorporation of [3H]putrescine into dimethylated casein)
Assay type: biochemical
Settings: 0.1 μM [3H]putrescine; 30 mM tris(hydroxymethyl)aminomethane HCl pH 8.0; FIG. 2
Procedure: The transglutaminase competition assay was conducted in the presence of 30 mM tris(hydroxymethyl)aminomethane HCl, pH 8.3 (closed circles); 30 mM glycine, pH 9.25, (open circles); 30 mM glycine, pH 9.75 (open triangles); or 30 mM glycine, pH 10.0 (open squares). The data were obtained in the presence of increasing amounts of unlabeled putrescine.
The ability of transglutaminase to incorporate polyamines into a covalent conjugate with protein is the basis for an assay procedure based on competition between radiolabeled polyamine and unlabeled polyamine-containing standards or samples as the enzyme's substrates. However, because the affinity of transglutaminase for amine-containing substrates is relatively low the assay reaction could not be conducted under saturating substrate conditions and yield the level of sensitivity required to measure the polyamine content of biological samples. Therefore, assay conditions were developed which would make the protein acceptor substrate ratelimiting and allow the reaction to be run to completion, the radioactive and unlabeled polyamine competing for the completion, the radioactive and unlabeled polyamine competing for the limited number of conjugation sites. […] In all cases, the maximum incorporation was achieved by 30-60 minutes and was stable to another hour.
The reaction was initiated by the addition of transglutaminase solution (10 μl), incubated 60 minutes at 37° C. […] Triplicate aliquots (35 μl) of the solution were spotted on 1.5×8 cm instant thin-layer chromatography strips at a site 1.5 cm above the bottom edge which had previously received 60 μl of 20% trichloroacetic acid. Ascending chromatography was immediately carried out in 5% trichloroacetic acid containing 0.2 M KCl. After the solvent front had reached the top of the strip (ca. 10 minutes), a 2.5-cm segment from 1.5 cm above the 1 cm below the origin was cut out, dried, and the segment counted in 6 ml of scintillation liquid (toluene/Omnifluor, New England Nuclear, Boston).

Structure (SMILES)	50% displacement of [3H]putrescine incorporation
NCCCCN [putrescine, Putrescine]	800 pmol
NCCCCNCCCN [spermidine, Spermidine]	800 pmol
NCCCNCCCCNCCCN [spermine]	800 pmol
